According to BindingDB's records for doi:10.1016/s0960-894x(01)00044-0 (Novartis Institute For Medical Sciences, 2001):

What was measured:
Substance-P receptor = Substance-P receptor (Cavia porcellus, UniProt P30547); experiment: ChEBML_205410
Description: In vitro binding affinity against Tachykinin receptor 1 in guinea pig ileum using organ bath assay

[1] = In vitro binding affinity against Tachykinin receptor 1 in rabbit whole brain membranes using [3H][Sar9Met(O2)]-SP binding assay

Sequence of Substance-P receptor (P30547 whole entry): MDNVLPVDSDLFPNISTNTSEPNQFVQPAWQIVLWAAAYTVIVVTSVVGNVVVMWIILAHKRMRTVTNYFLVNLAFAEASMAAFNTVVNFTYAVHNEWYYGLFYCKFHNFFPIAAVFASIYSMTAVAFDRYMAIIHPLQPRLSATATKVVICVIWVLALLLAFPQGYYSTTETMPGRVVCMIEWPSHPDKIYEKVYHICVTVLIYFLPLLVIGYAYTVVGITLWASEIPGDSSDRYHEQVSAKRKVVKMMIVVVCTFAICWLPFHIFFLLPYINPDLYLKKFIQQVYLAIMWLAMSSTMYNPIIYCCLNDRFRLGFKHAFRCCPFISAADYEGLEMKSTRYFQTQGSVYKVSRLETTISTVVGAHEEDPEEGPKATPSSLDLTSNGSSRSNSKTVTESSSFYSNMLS

Compound | IC50 (Substance-P receptor) | IC50 [1]
CSCCNS(=O)(=O)c1ccc(NNC(=S)N2CCCC2C(=O)NCc2ccccc2)c([N+](=O)[O-])c1 (configuration not stated) | > 100 µM | –
CSCCNS(=O)(=O)c1ccc(NNC(=S)N2CCCC2C(=O)NC(c2ccccc2)c2ccccc2)c([N+](=O)[O-])c1 (configuration not stated) | – | > 50 µM
